{"source": "patent US20090099167A1", "about": "“Organic compounds” (Novartis Institutes for Biomedical Research, priority 2004, published 2009)"}
{"biological_target": "T1, human EphB4 receptor (Homo sapiens, UniProt P54760)", "T1 construct": "made in house; host or cells: Sf9 or Sf21 (baculovirus)", "T1 sequence (P54760 566-987)": "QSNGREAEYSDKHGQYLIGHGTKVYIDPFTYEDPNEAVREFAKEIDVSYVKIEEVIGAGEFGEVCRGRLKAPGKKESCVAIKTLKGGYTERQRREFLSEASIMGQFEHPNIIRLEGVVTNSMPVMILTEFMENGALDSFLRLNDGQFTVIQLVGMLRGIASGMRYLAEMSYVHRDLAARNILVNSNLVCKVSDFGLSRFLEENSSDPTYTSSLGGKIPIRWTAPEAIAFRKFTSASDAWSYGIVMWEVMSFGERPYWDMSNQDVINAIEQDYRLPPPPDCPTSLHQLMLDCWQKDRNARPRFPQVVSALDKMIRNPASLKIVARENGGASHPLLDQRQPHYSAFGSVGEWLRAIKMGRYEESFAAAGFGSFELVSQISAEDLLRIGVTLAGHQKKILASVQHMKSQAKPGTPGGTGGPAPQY", "assay": "EphB4 kinase assay, GST-EphB, 33P incorporation into poly(Glu,Tyr)", "assay_type": "biochemical", "settings": "Table 4; read-out: EphB4, activity (IC50 for kinase inhibition)", "excerpt": "(§1) EphB4: Production and measure of enzymatic activity: Generation of Bac-to-Bac™ (Initrogen Life Technologies, Basel, Switzerland) GST-fusion expression vectors: Entire cytoplasmatic coding regions of the EphB-class are amplified by PCR from cDNA libraries derived from human placenta or brain, respectively. Recombinant baculovirus are generated that express the amino acid region 566-987 of the human EphB4 receptor (SwissProt Database, Accession No. P54760). GST sequence is cloned into pFastBac1® vector (Invitrogen Life Technologies, Basel, Switzerland) and PCR amplified. cDNAs encoding EphB4-receptor domains, respectively, are cloned in frame 3′prime to the GST sequence into this modified FastBac1 vector to generate pBac-to-Bac™ donor vectors. Single colonies arising from the transformation are inoculated to give overnight cultures for small scale plasmid preparation. […] By automated sequencing the inserts and approximately 50 bp of the flanking vector sequences are confirmed on both strands. Production of viruses: Viruses for each of the kinases are made according to the protocol supplied by GIBCO if not stated otherwise. In brief, transfer vectors containing the kinase domains are transfected into the DH10Bac cell line (GIBCO) and plated on selective agar plates. Colonies without insertion of the fusion sequence into the viral genome (carried by the bacteria) are blue. Single white colonies are picked and viral DNA (bacmid) isolated from the bacteria by standard plasmid purification procedures. Sf9 cells or Sf21 cells are then transfected in 25 cm2 flasks with the viral DNA using Cellfectin reagent according to the protocol. Purification of GST-tagged kinases: The centrifuged cell lysate is loaded onto a 2 mL glutathione-sepharose column (Pharmacia) and washed three times with 10 mL of 25 mM Tris-HCl, pH 7.5, 2 mM EDTA, 1 mM DTT, 200 mM NaCl. The GST-tagged proteins are then eluted by 10 applications (1 mL each) of 25 mM Tris-HCl, pH 7.5, 10 mM reduced-glutathione, 100 mM NaCl, 1 mM DTT, 10% Glycerol and stored at −70° C. Protein kinase assays: The activities of protein kinases are assayed in the presence or absence of inhibitors, by measuring the incorporation of 33P from [γ33P]ATP into a polymer of glutamic acid and tyrosine (poly(Glu,Tyr)) as a substrate. The kinase assays with purified GST-EphB (30 ng) are carried out for 15-30 min at ambient temperature in a final volume of 30 μL containing 20 mM Tris.HCl, pH 7.5, 10 mM MgCl2, 3-50 mM MnCl2, 0.01 mM Na3VO4, 1% DMSO, 1 mM DTT, 3 μg/mL poly(Glu,Tyr) 4:1 (Sigma; St. Louis, Mo., USA) and 2.0-3.0 μM ATP (γ-[33P]-ATP 0.1 μCi). The assay is terminated by the addition of 20 μL of 125 mM EDTA. Subsequently, 40 μl of the reaction mixture are transferred onto Immobilon-PVDF membrane (Millipore, Bedford, Mass., USA) previously soaked for 5 min with methanol, rinsed with water, then soaked for 5 min with 0.5% H3PO4 and mounted on vacuum manifold with disconnected vacuum source. After spotting all samples, vacuum is connected and each well rinsed with 200 μl 0.5% H3PO4. Membranes are removed and washed 4× on a shaker with 1.0% H3PO4, once with ethanol. Membranes are counted after drying at ambient temperature, mounting in Packard TopCount96-well frame, and addition of 10 μL/well of Microscint™ (Packard). IC50 values are calculated by linear regression analysis of the percentage inhibition of each compound in duplicate, at four concentrations (usually 0.01, 0.1, 1 and 10 μM). One unit of protein kinase activity is defined as 1 nmole of 33P ATP transferred from [γ33P] ATP to the substrate protein per minute per mg of protein at 37° C. Compounds of formula I show EphB4 inhibition down to 10 nM, preferably IC50 values between 0.01-1.0 μM.", "units": {"IC50": "µM"}}
{"compound": "CN1CCN(c2ccc(-c3cnn4c(N)c(-c5cccc(O)c5)cnc34)cc2)CC1", "note": "[Example 1, 3-{7-Amino-3-[4-(4-methyl-piperazin-1-yl)-phenyl]-pyrazolo[1,5-a]pyrimidin-6-yl}-phenol]", "IC50": "< 10"}
{"compound": "CN1CCN(c2cccc(-c3cnn4c(N)c(-c5cccc(O)c5)cnc34)c2)CC1", "note": "[Example 29, 3-{7-Amino-3-[3-(4-methyl-piperazin-1-yl)-phenyl]-pyrazolo[1,5-a]pyrimidin-6-yl}-phenol]", "IC50": "< 10"}
{"compound": "Nc1c(-c2cccc(O)c2)cnc2c(-c3cccnc3)cnn12", "note": "[Example 46, 3-[7-Amino-3-pyridin-3-yl-pyrazolo[1,5-a]pyrimidin-6-yl]-phenol]", "IC50": "< 10"}
{"compound": "COc1ccccc1-c1cnn2c(N)c(-c3cccc(O)c3)cnc12", "note": "[Example 48, 3-[7-Amino-3-(2-methoxy-phenyl)-pyrazolo[1,5-a]pyrimidin-6-yl]-phenol]", "IC50": "< 10"}
{"compound": "COc1cccc(-c2cnn3c(N)c(-c4cccc(O)c4)cnc23)c1", "note": "[Example 60, 3-[7-Amino-3-(3-methoxy-phenyl)-pyrazolo[1,5-a]pyrimidin-6-yl]-phenol]", "IC50": "< 10"}
{"biological_target": "T1, human EphB4 receptor", "assay": "EphB4 kinase assay, GST-EphB, 33P incorporation into poly(Glu,Tyr)", "assay_type": "biochemical", "settings": "Table 5; read-out: EphB4, IC50 class", "excerpt": "as §1", "units": {"IC50": "µM"}}
{"compound": "Cc1nc2c(-c3cccc(N4CCN(C)CC4)c3)cnn2c(N)c1-c1cccc(Cl)c1", "note": "[Example 72, 6-(3-Chloro-phenyl)-5-methyl-3-[3-(4-methyl-piperazin-1-yl)-phenyl]-pyrazolo[1,5-a]pyrimidin-7-ylamine]", "IC50": "< 1"}
{"compound": "Cc1nc2c(-c3ccc(N4CCN(C)CC4)cc3)cnn2c(N)c1-c1cccc(Cl)c1", "note": "[Example 73, 6-(3-Chloro-phenyl)-5-methyl-3-[4-(4-methyl-piperazin-1-yl)-phenyl]-pyrazolo[1,5-a]pyrimidin-7-ylamine]", "IC50": "< 1"}
{"compound": "COc1cc(N2CCN(C)CC2)ccc1-c1cnn2c(N)c(-c3cccc(Cl)c3)c(C)nc12", "note": "[Example 75, 6-(3-Chloro-phenyl)-3-[2-methoxy-4-(4-methyl-piperazin-1-yl)-phenyl]-5-methyl-pyrazolo[1,5-a]pyrimidin-7-ylamine]", "IC50": "< 1"}
{"compound": "COc1cc(N2CCN(C)CC2)ccc1-c1cnn2c(N)c(-c3cccc(O)c3)cnc12", "note": "[Example 76, 3-{7-Amino-3-[2-methoxy-4-(4-methyl-piperazin-1-yl)-phenyl]-pyrazolo[1,5-a]pyrimidin-6-yl}-phenol]", "IC50": "< 1"}
{"compound": "CN1CCN(c2ccc(-c3cnn4c(N)c(-c5ccccc5Cl)cnc34)cc2)CC1", "note": "[Example 77, 6-(2-Chloro-phenyl)-3-[4-(4-methyl-piperazin-1-yl)-phenyl]-pyrazolo[1,5-a]pyrimidin-7-ylamine]", "IC50": "< 1"}
{"compound": "CN1CCN(c2cccc(-c3cnn4c(N)c(-c5ccccc5Cl)cnc34)c2)CC1", "note": "[Example 78, 6-(2-Chloro-phenyl)-3-[3-(4-methyl-piperazin-1-yl)-phenyl]-pyrazolo[1,5-a]pyrimidin-7-ylamine]", "IC50": "< 1"}
{"compound": "Cc1nc2c(-c3ccc(N4CCN(C)CC4)cc3)cnn2c(N)c1-c1ccc(F)cc1", "note": "[Example 79, 6-(4-Fluoro-phenyl)-5-methyl-3-[4-(4-methyl-piperazin-1-yl)-phenyl]-pyrazolo[1,5-a]pyrimidin-7-ylamine]", "IC50": "< 1"}
{"compound": "Cc1nc2c(-c3cccc(N4CCN(C)CC4)c3)cnn2c(N)c1-c1ccc(F)cc1", "note": "[Example 80, 6-(4-Fluoro-phenyl)-5-methyl-3-[3-(4-methyl-piperazin-1-yl)-phenyl]-pyrazolo[1,5-a]pyrimidin-7-ylamine]", "IC50": "< 1"}
{"compound": "Cc1nc2c(-c3cccc(N4CCN(C5CCN(C)CC5)CC4)c3)cnn2c(N)c1-c1cccc(Cl)c1", "note": "[Example 81, 6-(3-Chloro-phenyl)-5-methyl-3-{3-[4-(1-methyl-piperidin-4-yl)-piperazin-1-yl]-phenyl}-pyrazolo[1,5-a]pyrimidin-7-ylamine]", "IC50": "< 1"}
{"compound": "Cc1nc2c(-c3cccc(N4CCN(C)CC4)c3)cnn2c(N)c1-c1ccc(F)c(Cl)c1", "note": "[Example 82, 6-(3-Chloro-4-fluoro-phenyl)-5-methyl-3-[3-(4-methyl-piperazin-1-yl)-phenyl]pyrazolo[1,5-a]pyrimidin-7-ylamine]", "IC50": "< 1"}
{"compound": "Cc1nc2c(-c3ccc(N4CCN(C)CC4)cc3)cnn2c(N)c1-c1ccc(F)c(Cl)c1", "note": "[Example 83, 6-(3-Chloro-4-fluoro-phenyl)-5-methyl-3-[4-(4-methyl-piperazin-1-yl)-phenyl]-pyrazolo[1,5-a]pyrimidin-7-ylamine]", "IC50": "< 1"}
{"compound": "Cc1nc2c(-c3cccc(N4CCN(C)CC4)c3)cnn2c(N)c1-c1cccc(Br)c1", "note": "[Example 84, 6-(3-Bromo-phenyl)-5-methyl-3-[3-(4-methyl-piperazin-1-yl)-phenyl]-pyrazolo[1,5-a]pyrimidin-7-ylamine]", "IC50": "< 1"}
{"compound": "CN1CCN(c2cccc(-c3cnn4c(N)c(Cc5cccc(Br)c5)cnc34)c2)CC1", "note": "[Example 85, 6-(3-Bromo-benzyl)-3-[3-(4-methyl-piperazin-1-yl)-phenyl]pyrazolo[1,5-a]pyrimidin-7-ylamine]", "IC50": "1 to 10"}
{"compound": "CN1CCN(c2cccc(-c3cnn4c(N)c(-c5cccc(Br)c5)cnc34)c2)CC1", "note": "[Example 86, 6-(3-Bromo-phenyl)-3-[3-(4-methyl-piperazin-1-yl)-phenyl]-pyrazolo[1,5-a]pyrimidin-7-ylamine]", "IC50": "1 to 10"}
{"compound": "COc1ccc(-c2cnn3c(N)c(-c4cccc(Cl)c4)c(C)nc23)cc1", "note": "[Example 88, 6-(3-Chloro-phenyl)-3-(4-methoxy-phenyl)-5-methyl-pyrazolo[1,5-a]pyrimidin-7-ylamine]", "IC50": "< 1"}
{"compound": "Cc1nc2c(-c3cccc(N4C[C@@H](C)O[C@@H](C)C4)c3)cnn2c(N)c1-c1cccc(Cl)c1", "note": "[Example 89, 6-(3-Chloro-phenyl)-3-[3-((2R,6S)-2,6-dimethyl-morpholin-4-yl)-phenyl]-5-methyl-pyrazolo[1,5-a]pyrimidin-7-ylamine]", "IC50": "< 1"}
{"compound": "Cc1nc2c(-c3cccc(N4CCN(CCO)CC4)c3)cnn2c(N)c1-c1cccc(Cl)c1", "note": "[Example 90, 2-(4-{3-[7-Amino-6-(3-chloro-phenyl)-5-methyl-pyrazolo[1,5-a]pyrimidin-3-yl]-phenyl}-piperazin-1-yl)-ethanol]", "IC50": "< 1"}
{"compound": "CN1CCN(c2cccc(-c3cnn4c(N)c(Cc5ccccc5)cnc34)c2)CC1", "note": "[Example 91, 6-Benzyl-3-[3-(4-methyl-piperazin-1-yl)-phenyl]-pyrazolo[1,5-a]pyrimidin-7-ylamine]", "IC50": "< 1"}
{"compound": "COc1ccc(-c2cnn3c(N)c(-c4cccc(Cl)c4)c(CF)nc23)cc1OC", "note": "[Example 92, 6-(3-Chloro-phenyl)-3-(3,4-dimethoxy-phenyl)-5-fluoromethyl-pyrazolo[1,5-a]pyrimidin-7-ylamine]", "IC50": "< 1"}
{"compound": "COc1ccc(-c2cnn3c(N)c(-c4cccc(Cl)c4)c(C)nc23)cc1OC", "note": "[Example 93, 6-(3-Chloro-phenyl)-3-(3,4-dimethoxy-phenyl)-5-methyl-pyrazolo[1,5-a]pyrimidin-7-ylamine]", "IC50": "< 1"}
